According to ChEMBL document CHEMBL4699591, “An efficient synthesis tetrazole and oxadiazole analogues of novel 2'-deoxy-C-nucleosides and their antitumor activity” (2020):

Legend:
Assay type in all cases: functional
[1] = system: MDA-MB-231; assay: Cytotoxicity against human MDA-MB-231 cells assessed as inhibition of cell growth at 10 uM incubated for 72 hrs by MTT assay relative to control
[2] = system: MDA-MB-231; assay: Cytotoxicity against human MDA-MB-231 cells assessed as inhibition of cell growth at 2 uM incubated for 72 hrs by MTT assay relative to control
[3] = system: PC-3; assay: Cytotoxicity against human PC-3 cells assessed as inhibition of cell growth at 2 uM incubated for 72 hrs by MTT assay relative to control
[4] = system: HeLa; assay: Cytotoxicity against human HeLa cells assessed as inhibition of cell growth at 2 uM incubated for 72 hrs by MTT assay relative to control
[5] = system: PANC-1; assay: Cytotoxicity against human PANC-1 cells assessed as inhibition of cell growth at 2 uM incubated for 72 hrs by MTT assay relative to control
[6] = system: SK-OV-3; assay: Cytotoxicity against human SK-OV-3 cells assessed as inhibition of cell growth at 2 uM incubated for 72 hrs by MTT assay relative to control

CC(C)c1nc([C@H]2C[C@H](O)[C@@H](CO)O2)no1
inhibition at 10 µM [1]: 9%

Cc1nnc([C@@H]2C[C@H](O)[C@@H](CO)O2)o1
inhibition at 10 µM [1]: 9%

COc1cccc2c1C(=O)c1c(O)c3c(c(O)c1C2=O)C[C@@](O)(C(=O)CO)C[C@@H]3O[C@H]1C[C@H](N)[C@H](O)[C@H](C)O1 [DOXORUBICIN]
inhibition at 2 µM [2]: > 90% | inhibition at 2 µM [3]: > 90% | inhibition at 2 µM [4]: > 90% | inhibition at 2 µM [5]: > 90% | inhibition at 2 µM [6]: > 90%
